Experimental data from paper PMC8536644, “Enigmatic mechanism of the N-vinylpyrrolidone hepatocarcinogenicity in the rat” (Archives of Toxicology, 2021).
Several values for one entry are separate records, joined by “and”; a condition that tells them apart may be missing. Identical values can stand only once.

Columns and labels:
[1] = system: CYP2B; assay: PROD assay, lung microsomes; format: in vivo, rat; conditions: 20 ppm
Description: (§1) The alkoxyresorufin dealkylase (AROD) assays were based on the method by Burke et al. ([1994]).
The frozen livers and lungs of the NVP-treated male Wistar rats were thawed and washed with isotonic (0.9%) NaCl solution. The tissues were ice-cooled homogenized (1 g tissue: 3 mL 0.25 M saccharose in 1 mM disodium EDTA, pH 7.4) and centrifuged (9000 g, 15 min, 4 °C). The supernatant fraction was centrifuged (100 000 g, 60 min, 4 °C). The resulting supernatant fraction was used for the palmitoyl-CoA-oxidase assay described further down. The pellet was taken up in 150 mM aqueous KCl solution, recentrifuged (100 000 g, 60 min, 4 °C) and the pellet taken up in 1 mL/g liver or 0.5 mL/g lung resuspension buffer (1 mM GSH, 1 mM disodium EDTA, 4 mM MgCl2, 0.1 M KH2PO4, pH 7.5 and 4% glycerol). […]
For determination of the enzyme activities in triplicates, 85 µL master mix (100 mM TrisHCl pH 7.5, 2 mM 5’AMP, 5 mM G-6-P, 10 U G-6-P-DH, 10 mM Dicumarol, 10 mM MgCl2, either 2 µM EROD or 10 µM PROD or 5 µM BROD) was added to 10 µL microsomal fraction (1 mg protein/mL). […] The activity was determined by measuring the increase of the fluorescence (excitation at 550 nm, emission at 585 nm) due to resorufin formation compared with resorufin standards, which had been prepared by dissolving tenfold concentrated solutions in DMSO, which were then diluted tenfold in 100 mM TrisHCl pH 7.5.

[2] = system: rat hepatocytes; assay: MTT assay in cultivated rat hepatocytes; format: cell-based; conditions: up to 1000 µM
[3] = system: rat liver; assay: Glutathione recycling assay (tGSH, GSSG) in liver; format: in vivo; conditions: for GSH (GSH recycling assay), individual animal / GSSG, individual animal / tGSH, individual animal / GSH (GSH recycling assay), group (mean ± SD) / GSSG, group (mean ± SD) / tGSH, group (mean ± SD): rat liver; for GSH (GSH recycling assay), group (mean ± SD) / GSSG, group (mean ± SD) / tGSH, group (mean ± SD): n = 6;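 for GSSG, group (mean ± SD): Nanomoles per gram liver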;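 for GSSG, individual animal: Nanomoles per gram liver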;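 for Mean GSSG concentration: Nanomoles per gram liver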
Description: Glutathione recycling assay was adapted from the method described by Gallagher ([1994]) and performed using the 14 000 g supernatant fraction derived from the 5-SSA-treated liver homogenate of the NVP-exposed male Wistar rats as described above under “Non-protein-bound sulfhydryl groups”. The obtained samples were diluted fivefold with the 5% 5-SSA solution.
For determination of total glutathione (tGSH, i.e. GSH + GSSG) a GSH control (640 µM in 5% 5-SSA, diluted by a factor of 4 for application in the assay) and a tGSH control (200 µM in 5% 5-SSA, containing 10% GSSG) were treated the same way as the samples. To 5 µL of sample, controls as well as GSH standards (dissolved in 5% 5-SSA solution) 190 µL tGSH master mix, consisting of phosphate/EDTA buffer (125 mM KH2PO4/7 mM EDTA, pH 7.5), 0.4 mM NADPH and 0.5 U/L glutathione reductase suspension, were added. Determinations were performed in triplicates. The reaction was started by adding 5 µL of 24 mM DTNB in methanol. The absorption at λ = 412 nm was measured every 60 s for 5 min.
For determination of GSSG a control (20 μM GSSG, 160 μM GSH) was treated the same way as the samples. 125 µL sample, control, GSSG standards and blank, respectively, were combined with 5 µL 2-vinylpyridine (Sigma Aldrich, Steinheim, Germany). 20 µL of […] triethylamine was pipetted to the upper rim of the vessel such that after mixing the pH value was between 7 and 7.5 and reaction was allowed to proceed in the thermomixer at 600 rpm for 1 h at 26 °C in order to derivatize the GSH in the sample. The determination of GSSG was then performed in analogy to the determination of tGSH described above. The absorption at λ = 412 nm was measured every 60 s for 10 min.

[4] = system: CYP 2B/3A; assay: BROD assay, lung microsomes; format: in vivo, rat; conditions: male rats
Description: as §1
The frozen livers and lungs of the NVP-treated male Wistar rats were thawed and washed with isotonic (0.9%) NaCl solution. The tissues were ice-cooled homogenized (1 g tissue: 3 mL 0.25 M saccharose in 1 mM disodium EDTA, pH 7.4) and centrifuged (9000 g, 15 min, 4 °C). The supernatant fraction was centrifuged (100 000 g, 60 min, 4 °C). The resulting supernatant fraction was used for the palmitoyl-CoA-oxidase assay described further down. The pellet was taken up in 150 mM aqueous KCl solution, recentrifuged (100 000 g, 60 min, 4 °C) and the pellet taken up in 1 mL/g liver or 0.5 mL/g lung resuspension buffer (1 mM GSH, 1 mM disodium EDTA, 4 mM MgCl2, 0.1 M KH2PO4, pH 7.5 and 4% glycerol). Aliquots were stored at − 80 °C.
For determination of the enzyme activities in triplicates, 85 µL master mix (100 mM TrisHCl pH 7.5, 2 mM 5’AMP, 5 mM G-6-P, 10 U G-6-P-DH, 10 mM Dicumarol, 10 mM MgCl2, either 2 µM EROD or 10 µM PROD or 5 µM BROD) was added to 10 µL microsomal fraction (1 mg protein/mL). The reaction was started by the addition of 5 µL 2 mM NADPH (dissolved in 100 mM TrisHCl pH 7.5) followed by incubation at 37 °C for 16 min. The activity was determined by measuring the increase of the fluorescence (excitation at 550 nm, emission at 585 nm) due to resorufin formation compared with resorufin standards, which had been prepared by dissolving tenfold concentrated solutions in DMSO, which were then diluted tenfold in 100 mM TrisHCl pH 7.5.

[5] = 5 ppm NVP inhalation, animals 7-12
[6] = 10 ppm NVP inhalation, animals 13-18
[7] = 20 ppm NVP inhalation, animals 19-24

C=CN1CCCC1=O [NVP, N-vinylpyrrolidone]
PROD activity in lung microsomes vs vehicle control [1]: not significantly different
Cytotoxicity in MTT assay [2]: no cytotoxicity observed
GSH/GSSG ratio ([3]; 5 ppm): 42.2 ± 18.4
Mean GSSG concentration ([3]; 5 ppm): 116 ± 32 nmol/g liver
Proportion of reduced glutathione GSH within total glutathione tGSH ([3]; 5 ppm): 95.0% ± 1.4%
GSH/GSSG ratio ([3]; 10 ppm): 31.2 ± 4.6
Mean GSSG concentration ([3]; 10 ppm): 135 ± 12 nmol/g liver
Proportion of reduced glutathione GSH within total glutathione tGSH ([3]; 10 ppm): 93.9% ± 0.8%
GSH/GSSG ratio ([3]; 20 ppm): 30.0 ± 4.6
Mean GSSG concentration ([3]; 20 ppm): 136 ± 22 nmol/g liver
Proportion of reduced glutathione GSH within total glutathione tGSH ([3]; 20 ppm): 93.6% ± 0.9%
GSH concentration (GSH recycling assay), range ([3]; NVP-exposed male rats, 5-20 ppm): 3.06–5.48 µmol/g liver
GSH (GSH recycling assay), individual animal [3, 5]: 3.84 µmol/g liver and 5.48 µmol/g liver and 4.63 µmol/g liver and 3.93 µmol/g liver and 5.04 µmol/g liver and 4.00 µmol/g liver
GSSG, individual animal [3, 5]: 133 nmol/g liver and 71 nmol/g liver and 144 nmol/g liver and 114 nmol/g liver and 149 nmol/g liver and 87 nmol/g liver
tGSH, individual animal [3, 5]: 4.10 µmol/g liver and 5.63 µmol/g liver and 4.92 µmol/g liver and 4.16 µmol/g liver and 5.33 µmol/g liver and 4.17 µmol/g liver
GSH (GSH recycling assay), group (mean ± SD) ([3]; 5 ppm NVP inhalation): 4.49 ± 0.68 µmol/g liver
GSSG, group (mean ± SD) ([3]; 5 ppm NVP inhalation): 116 ± 32 nmol/g liver
tGSH, group (mean ± SD) ([3]; 5 ppm NVP inhalation): 4.72 ± 0.67 µmol/g liver
GSH (GSH recycling assay), individual animal [3, 6]: 3.44 µmol/g liver and 3.95 µmol/g liver and 4.70 µmol/g liver and 4.98 µmol/g liver and 4.41 µmol/g liver and 3.65 µmol/g liver
GSSG, individual animal [3, 6]: 132 nmol/g liver and 120 nmol/g liver and 151 nmol/g liver and 147 nmol/g liver and 126 nmol/g liver
tGSH, individual animal [3, 6]: 3.70 µmol/g liver and 4.21 µmol/g liver and 4.94 µmol/g liver and 5.28 µmol/g liver and 4.70 µmol/g liver and 3.91 µmol/g liver
GSH (GSH recycling assay), group (mean ± SD) ([3]; 10 ppm NVP inhalation): 4.19 ± 0.61 µmol/g liver
GSSG, group (mean ± SD) ([3]; 10 ppm NVP inhalation): 135 ± 12 nmol/g liver
tGSH, group (mean ± SD) ([3]; 10 ppm NVP inhalation): 4.46 ± 0.62 µmol/g liver
GSH (GSH recycling assay), individual animal [3, 7]: 4.45 µmol/g liver and 4.57 µmol/g liver and 3.06 µmol/g liver and 3.48 µmol/g liver and 4.31 µmol/g liver and 4.35 µmol/g liver
GSSG, individual animal [3, 7]: 151 nmol/g liver and 130 nmol/g liver and 106 nmol/g liver and 142 nmol/g liver and 121 nmol/g liver and 167 nmol/g liver
tGSH, individual animal [3, 7]: 4.75 µmol/g liver and 4.83 µmol/g liver and 3.27 µmol/g liver and 3.77 µmol/g liver and 4.55 µmol/g liver and 4.68 µmol/g liver
GSH (GSH recycling assay), group (mean ± SD) ([3]; 20 ppm NVP inhalation): 4.04 ± 0.62 µmol/g liver
GSSG, group (mean ± SD) ([3]; 20 ppm NVP inhalation): 136 ± 22 nmol/g liver
BROD activity in lung microsomes ([4]; 5 ppm): 22.9 ± 11.0 pmol/min/mg protein
BROD activity in lung microsomes ([4]; 10 ppm): 25.5 ± 19.8 pmol/min/mg protein
BROD activity in lung microsomes ([4]; 20 ppm): 82.1 ± 76.8 pmol/min/mg protein
